According to patent US6913768B2, “Sustained release delivery of amphetamine salts” (Shire Laboratories, Inc., priority 2002, dated 2005):

Assay: Single-dose mean plasma concentration profile of […] XR 20 mg (FIG. 1)
Format: in vivo
Conditions: human, oral, […] XR 20 mg single dose, mean over about 20 patients
Procedure: See, e.g., Fundamentals of Clinical Pharmacokinetics. J. G. Wagner, Drug Intelligence Publications, Inc., Hamilton, Ill., 1975; Guidance for Industry, Bioavailability and Bioequivalence Studies for Orally Administered Drug Products-General Considerations, FDA, CDER. October 2000.
Individual patients were treated with […] XR®, 20 mg. Subjects received either one single dose administered with food or one single dose administered following a 10-hour overnight fast through continued fast 3.5 hours post dosing. The mean plasma concentration profile of FIG. 1 was obtained from averaging such individuals' curves.

In the case of `C[C@H](N)Cc1ccccc1` [d-amphetamine], the Cmax was 28 ng/mL, the Tmax was 7.1 h and the AUC (read-out: AUC (time zero to infinity)) was 557 ng·h/mL.
